These results are taken from patent US4970199A, “Steroidal glycolipids as host resistance stimulators against viral infection” (priority 1989, dated 1990).

For series [1] the following is noted: cited from earlier work.
For series [2], the system named is HIV. The following applies: cited from earlier work.
For series [3] the following is noted: cited from earlier work. The source holds these as a separate data set.
Series [4] deals with Mycobacterium avium-intracellulare. The following applies: human, in vivo; cited from earlier work.
Series [5] has as its system HIV. As to conditions: clinical trials; cited from earlier work.
In series [6] the test system is Herpes Simplex Virus-1 (HSV1). The experiment in a line: Antiviral experiment in mice infected IP with Herpes Simplex Virus-1. The class given is in vivo, HSV1 (Schloser), in ICR mice. The procedure: An antiviral experiment was conducted to compare treatment with 6-(5-Cholesten-3β-yloxy)hexyl 1-thio-β-D-mannopyranoside (Example 2) in mice infected IP with Herpes Simplex Virus-1 (HSV1) immediately before (post treatment) or after 5 days of treatment (pretreatment).
Ten mice (ICR, 20 gm, mixed sexes) were pretreated by SC injection of a 0.1 mL suspension of test compound twice a day for 4 days. On day 5, the mice were injected IP with 0.5 mL solution of HSV1 (Schloser, 10-5). The post treatment group was infected with HSV1 prior to administration of test compound. Day of death from time of infection with HSV1 was recorded for each mouse and average day of death per treatment group was calculated.

Series [7] concerns Pseudomonas aeruginosa. The experiment in a line: Stimulation of host resistance: protection of cyclophosphamide-immunocompromised mice from Pseudomonas aeruginosa infection. The format is in vivo, Pseudomonas aeruginosa (Immunotype 1), in CF1 female mice. As to conditions: Table 3, CY-treated mice, dose not printed in table (initial test dose 40 mg per kg). The procedure: Groups of 15-20 CF1 female mice (Charles River Breeding, Cambridge, Mass.) weighing 22-28 gm were injected intraperitoneally (i.p.) with cyclophosphamide (Cytoxan; CY) at 250 mg per kg body weight. One to two hours later they were typically injected again with the test material by the route specified. Four days later, the mice were divided into groups of five, each of which were injected i.p. with a different dilution of a suspension of Pseudomonas aeruginosa (Immunotype 1). The number of survivors was determined periodically and an estimate was made of the number of CFU of Pseudomonas organisms necessary to cause 50% lethality by the cumulative method of L. J. Reed and H. Muench (Am. J. Hygiene 27 (1938) 493-497). A protective index (P.I.) was defined as the LD50 for the mice receiving cyclophosphamide and the test compound divided by the LD50 for the mice receiving cyclophosphamide alone. All control mice were injected with aqueous vehicle in the same route and schedule as the test animals.
MATERIALS. All compounds for dosing were suspended in a sterile medium referred to as "aqueous vehicle" which contains 0.9% sodium chloride, 0.5% carboxymethyl cellulose, 0.4% Tween 80, and 0.9% benzyl alcohol unless otherwise stated. Test materials were evaluated via subcutaneous (s.c.), i.p., intramuscular (i.m.), orally (p.o.). and intravenous (i.v.) routes of administration. […]

The subject of series [8] is human immunodeficiency virus (HIV). As to conditions: cited from earlier work.
The subject of series [9] is reverse transcriptase in several retroviruses. The following applies: in vitro; cited from earlier work.
Series [10] deals with Kaposi's sarcoma. As to conditions: in vivo; cited from earlier work.

Entries after “also recorded” stand apart in the source; their conditions may differ.

Take `Cc1cn([C@H]2C[C@H](N=[N+]=[N-])[C@@H](CO)O2)c(=O)[nH]c1=O` [AZT, 3'-azido-3'-deoxythymidine]: the toxicity result in series [1] (in vivo) was “some toxicity, with anemia and headaches”. Further, the “prolonging lives of patients with AIDS or ARC” value in series [2] (human, in vivo) is listed as “show promise in prolonging lives of patients with AIDS or AIDS-related complex (ARC)”. The “half-life in the body” value in series [3] (in vivo) is on record as “relatively short half-life in the body”. Besides, the oral absorption entry in [3] (oral) is “Well absorbed orally”.

As for `CO[C@H]1/C=C/O[C@@]2(C)Oc3c(C)c(O)c4c(c3C2=O)C2=NC3(CCN(CC(C)C)CC3)NC2=C(NC(=O)/C(C)=C\C=C\[C@H](C)[C@H](O)[C@@H](C)[C@@H](O)[C@@H](C)[C@H](OC(C)=O)[C@@H]1C)C4=O` [Ansamycin, rifabutin], the “efficacy in AIDS patients with opportunistic infection” value in series [4] is recorded as “some efficacy in treating AIDS patients with an opportunistic infection”.

With `CC(C)(N1CC1C#N)N1CC1C(N)=O` (stereo not drawn) [Azimexon], the toxic effect entry in series [1] (early trial, disappeared when treatment ceased) is “only toxic effect was mild hemolysis”. Besides, the “symptoms and immune function” value in [2] (early trial, ARC and AIDS patients) was “improvements in symptoms and immune function in patients with ARC but not AIDS”. In the case of `CC(C)(S)[C@@H](N)C(=O)O` [D-Penicillamine, 3-mercapto-D-valine], the “HIV reproduction / viral replication in patients” value in [5] is recorded as “Inhibits HIV reproduction in humans; also recorded: suppressed the virus”. With `CC(C)CCC[C@@H](C)[C@H]1CC[C@H]2[C@@H]3CC=C4C[C@@H](OCCCCCCS[C@@H]5O[C@H](CO)[C@@H](O)[C@H](O)[C@@H]5O)CC[C@]4(C)[C@H]3CC[C@]12C` [Example 2, 6-(5-Cholesten-3β-yloxy)hexyl 1-thio-β-D-mannopyranoside], in [6] (50 mg/kg twice a day for four days), the “protection from fatal viral infection over placebo treated animals, by day of death” value is recorded as “statistically enhanced protection from fatal viral infection over placebo treated animals”. For the same molecule, the “protection of pretreated mice over the post treatment group” value in series [6] (pretreatment vs post treatment) is “statistically enhanced protection over the post treatment group”. In the case of `CC[C@H](/C=C/[C@@H](C)[C@H]1CC[C@H]2[C@@H]3CC=C4C[C@@H](OCCCCCCS[C@@H]5O[C@H](CO)[C@@H](O)[C@H](O)[C@@H]5O)CC[C@]4(C)[C@H]3CC[C@]12C)C(C)C` [Example 6, 6-(Stigmasta-5,22-dien-3β-yloxy)hexyl 1-thio-β-D-mannopyranoside], in [7], the “Protective Index (log)” value came out at 2.0 log. Turning to `CC(=O)NC(C)C1CCC2C3CC=C4CC(OCCCCCCSC5OC(CO)C(O)C(O)C5O)CCC4(C)C3CCC12C` [Example 11, 6-(20S-Acetamido-pregn-5-en-3β-yloxy)hexyl 1-thio-β-D-mannopyranoside], the “Protective Index (log)” value in series [7] is reported as 3.0 log.

In the case of `O=C(O)P(=O)(O)O` [Foscarnet, trisodium phosphonoformate], the side effects result in [1] (in vivo) is listed as “serious side effects”. Take `CC(=O)Nc1ccc(C(=O)O)cc1.CC(=O)Nc1ccc(C(=O)O)cc1.CC(=O)Nc1ccc(C(=O)O)cc1.CC(O)CN(C)C.CC(O)CN(C)C.CC(O)CN(C)C.O=c1[nH]cnc2c1ncn2[C@@H]1O[C@H](CO)[C@@H](O)[C@H]1O` [Inosine pranobex]: in [2] (human, in vivo), the “immune function in ARC or AIDS patients” value was “improve immune function in ARC patients”.

For the molecule `NC(=O)c1ncn([C@@H]2O[C@H](CO)[C@@H](O)[C@H]2O)n1` [Ribavirin, 1-β-D-ribofuranosyl-1,2,4-triazole-3-carboxamide], in series [1] (in vivo), the safety profile entry is given as “acceptable” and the tolerability result is given as “well tolerated”. Further, the “immune function in ARC or AIDS patients” value in series [2] (human, in vivo) is “improved immune function in AIDS patients”. For the same molecule, the “HIV reproduction / viral replication in patients” value in [5] is on record as “inhibited viral replication”. As to `Cc1ccc(C(=O)Nc2ccc(S(=O)(=O)O)c3cc(S(=O)(=O)O)cc(S(=O)(=O)O)c23)cc1NC(=O)c1cccc(NC(=O)Nc2cccc(C(=O)Nc3cc(C(=O)Nc4ccc(S(=O)(=O)O)c5cc(S(=O)(=O)O)cc(S(=O)(=O)O)c45)ccc3C)c2)c1` [Suramin], the “therapeutic benefit or clinical improvement in AIDS patients” value in series [2] was “little or no evidence of clinical improvement or immunologic recovery”. Take “ammonium 21-tungsto-9-antimoniate [HPA-23]”: the “growth of HIV” value in series [8] is “some tendency to check the growth of HIV”. Also, the “reverse transcriptase inhibition, several retroviruses” value in [9] is on record as “Inhibits reverse transcriptase in several retroviruses in vitro”. Besides, in series [2], the “therapeutic benefit or clinical improvement in AIDS patients” value was “no therapeutic benefit has been documented in AIDS patients”.

Take α-Interferon: the “growth of HIV” value in [8] was “Checks the growth of HIV in vitro”. Also, in series [10], the “tumor regression in AIDS-related Kaposi's sarcoma” value was “induced tumor regression in some AIDS-related Kaposi's sarcoma cases”.
